The text below walks through data of patent US10053502B2, “Selective inhibitors of c-Fos and their antiproliferative properties” (INSERM (INSTITUT NATIONAL DE LA SANTÉ ET DE LA RECHERCHE …, priority 2014, dated 2018).

Read-outs that look alike come from different tables or passages of the source. Residues, ends and D or L forms follow the SMILES beside them.

Assay [1] has as its system sNF96.2 (MPNST cell line). Type of assay: cell-based, human. As to conditions: MTT, 96 hours; for anti-proliferative properties on MPNST (words): 2 to 100 μM. The procedure: The inventors have further tested 4 different peptides in the Peripheral Nerve Sheath Tumors (MPNST) cell lines sNF96.2, which was deposited to the ATCC under the reference ATCC® CRL-2884™.
Cells were cultured at DayO in a complete medium (DMEM with 10% of fetal bovine serum). Then they were deprived at Day2 (24 hours in a medium comprising DMEM with 0.1% fetal bovine serum followed by 24 hours in DMEM alone).
At Day 4, the cells were incubated with a dose escalation regimen of pepsignal peptides from 2 to 100 μM.
The proliferation tests were carried out 96 hours later.
Proliferation was analysed by a MTT assay. The MTT assay is a colorimetric assay for assessing cell viability. The viability is measured by the metabolic activity if the cells, which is determined by the activity of a mitochondrial succinate dehydrogenate. Typically, the cell media goes from yellow to blue and the intensity of the coloration is proportional to the number of viable cells. Coloration is determined by […] at 570 nm.
The inventors performed three independent experiments, each point being performed in duplicate for each experiment.

A further assay concerns vSMC. In words: Wound healing assay (invasiveness) in vSMC. Type of assay: cell-based, human. As to conditions: 24 to 72 hours, U0126 10 μM, Paclitaxel 10 nM, 10% serum. The method, then:
The peptide was applied once, at the same time as 10% serum. The invasiveness was calculated as the percentage of cells over the size of the lesion, 24, 48 and 72 hours post-lesion.
Cells were cultured in 24-well plates as a confluent monolayer (30000 cells plated per well). […] Cells were fixed in 4% paraformaldehyde then stained with cresyl violet dye (1% in methanol). Pictures were taken to visualize the marked wound location. The wound healing effect was measured using the NIH ImageJ program and expressed as percentage of recovery of the lesion.
Invasive properties were studied using the wound healing protocol.
The percentage of lesion recovery was measured after cresyl violet staining of vSMC cells (FIG. 8).

Assay [2] relates to human coronary arterial endothelial cells (HCAEC). The assay can be described thus: Serum-induced proliferation of HCAEC, BrdU incorporation. As to conditions: 10% serum, peptide 3-12 μM, U0126 10 μM, Paclitaxel 10 nM, VIVIT 100 μM. Type of assay: cell-based. The procedure:
Using the same protocol than in FIG. 3, cells were grown in the presence of 10% serum after withdrawal. The peptide TAT-DEF-c-Fos was applied at a single dose one day after withdrawal. Proliferation was tested using a BrdU assay; n=3; One-way ANOVA; Dunett post hoc test; * p<0.05; when compared to the group treated with 10% serum
Primary human coronary arterial endothelial cells (HCAEC) (Promocell C12222) were grown in Endothelial Cell Growth Medium MV2 (Promocell).
(§1) 10 000 cells per well were grown in the presence of complete medium. After one cycle of cell division (around 32 hours for HCAEC and vSMC, 24 hours for NIH3T3), the cells were starved for one other cycle (0.1% serum or nutriment supplement for HCAEC). […] Proliferation was analyzed after BrdU incorporation, which allows the visualization of cells under division. For HCAEC and vSMC, BrdU was added with inhibitor. For NIH3T3, it was added only during the last three hours. Cells were fixed in 4% paraformaldehyde.
(§2) Only the nuclei with an intact nucleus were taken into account. Image-Pro Plus software (Media Cybernetics) was used in order to quantify BrdU positive cells. The percentage of positive cells was reported to the total number of Hoechst-positive cells.
Background: Incorporation of labelled thymidine or its analogues reports DNA synthesis.

Assay [3] concerns malignant peripheral nerve sheat tumors (MPNST) from NF1 patients. The assay can be described thus: Proliferation of MPNST cell lines from NF1 patients. Type of assay: cell-based. As to conditions: Homo sapiens, read-out: IC50, inhibition of proliferation of MPNST, 15% serum, control. The method, then: Human cell lines from malignant peripheral nerve sheat tumors (MPNST) were treated with either TAT-DEF-c-Fos at increasing doses, or as a control, with Rapamycin, an inhibitor of the mTOR pathway that is classically used as an inhibitor of proliferation on this cell line. The TAT-DEF-c-Fos peptide inhibited proliferation of MPNST at very low doses when compared to Rapamycin (IC50 for TAT-DEF-c-Fos around 10 μM instead of 10 mM for Rapamycin).
Malignant Peripheral Nerve Sheath Tumors (MPNST: from NF1 patients) were obtained from Michel Videaud's laboratory. 2000 cells were grown in the presence of 15% serum after withdrawal.
The inventors tested the efficacy of TAT-DEF-c-Fos on malignant NF1 cell proliferation (FIG. 9). For this purpose, the inventors used Human cell lines from malignant peripheral nerve sheat tumors (MPNST) from NF1 patients.
The MPNST cell lines were derived from a recurrent mass associated with peripheral nerve sheat and diagnosed as MPNST (Malignant Peripheral Nerve Sheath Tumor) in patients meeting NF1 diagnostic criteria.

In assay [4] the test system is vascular smooth muscle cells (vSMC). In words: Serum-induced proliferation of vSMC, BrdU incorporation. The following applies: 3, 6 and 12 μM, 10% serum. Type of assay: cell-based, human. The method, then: On day one, 10 000 cells per well were grown in the presence of 10% serum. […] On the bases of our previous results in neuronal cells (see Lavaur et al., 2007) three different doses of pepsignal were tested: from 3 to 12 μM.
Using the same protocol as in FIG. 3, cells were grown in the presence of 10% FBS (serum) after withdrawal. The peptide TAT-DEF-c-Fos was applied once (6 or 12 μM) on day one (first day after withdrawal) and proliferation was tested using a BrdU assay 24, 48 or 72 hours later. When indicated, multiple applications of the peptide were done (“m”) every 24 hours. Note that the TAT-DEF-c-Fos12 μM is not reported herein; n=3; Two-way ANOVA; Bonferroni post hoc test; *** p<0.001 when compared to the group treated with 10% serum.
Primary vascular smooth muscle cells (vSMC) (ATCC CRL-1999) were grown in DMEM F12K medium supplemented 0.05 mg/ml ascorbic acid; 0.01 mg/ml insulin; 0.01 mg/ml transferrin; 10 ng/ml sodium selenite; 10% (v/v) heat-inactivated FBS (Fetal Bovine Serum), 100 U/ml penicillin, and 100 μg/ml streptomycin, 10 mM HEPES.
10 000 cells per well were grown in the presence of complete medium. […] Proliferation was analyzed after BrdU incorporation, which allows the visualization of cells under division. […]
Only the nuclei with an intact nucleus were taken into account. Image-Pro Plus software (Media Cybernetics) was used in order to quantify BrdU positive cells. […]

A further assay concerns NIH3T3 cells. The assay can be described thus: Serum-induced proliferation of NIH3T3 fibroblasts, BrdU incorporation. Type of assay: cell-based, mouse. The following applies: 10% serum; BrdU 3 h; peptide 1 to 12 μM, U0126 10 μM. The method, then:
On day one, 10 000 cells per well were grown in the presence of 10% serum.
NIH 3T3 mouse embryonic fibroblast cells were grown in DMEM supplemented with 10% (v/v) heat-inactivated FBS, 100 U/ml penicillin, and 100 μg/ml streptomycin.
as §1, §2

In the case of `CC[C@H](C)[C@H](NC(=O)[C@H](CCCCN)NC(=O)[C@@H](NC(=O)[C@H](CCC(N)=O)NC(=O)[C@@H](N)CCCNC(=N)N)[C@@H](C)CC)C(=O)N[C@@H](Cc1c[nH]c2ccccc12)C(=O)N[C@@H](Cc1ccccc1)C(=O)N[C@@H](Cc1c[nH]c2ccccc12)C(=O)N[C@@H](CC(N)=O)C(=O)N[C@@H](CCCNC(=N)N)C(=O)N[C@@H](CCCNC(=N)N)C(=O)N[C@@H](CCSC)C(=O)N[C@@H](CCCCN)C(=O)N[C@@H](Cc1c[nH]c2ccccc12)C(=O)N[C@@H](CCCCN)C(=O)N[C@@H](CCCCN)C(=O)N1CCC[C@H]1C(=O)N1CCC[C@H]1C(=O)N[C@@H](CS)C(=O)N[C@H](C(=O)N[C@H](C(=O)N[C@@H](Cc1ccc(O)cc1)C(=O)N[C@H](C(=O)N[C@@H](CO)C(=O)N[C@@H](CO)C(=O)N[C@@H](Cc1ccccc1)C(=O)N[C@H](C(=O)N[C@@H](Cc1ccccc1)C(=O)N[C@H](C(=O)N[C@@H](Cc1ccc(O)cc1)C(=O)N1CCC[C@H]1C(=O)N[C@@H](CCC(=O)O)C(=O)N[C@@H](C)C(=O)N[C@@H](CC(=O)O)C(=O)N[C@@H](CO)C(=O)N[C@@H](Cc1ccccc1)C(=O)N1CCC[C@H]1C(=O)N[C@@H](CO)C(=O)O)[C@@H](C)O)C(C)C)[C@@H](C)O)[C@@H](C)O)[C@@H](C)O` [Penetratin-DEF-c-Fos] (H-RQIKIWFWNRRMKWKKPPCTTYTSSFVFTYPEADSFPS-OH; N-terminus and C-terminus assumed), the “inhibition of proliferation of sNF96.2” value in assay [1] (100 μM) is listed as about 66%. Also, in assay [1], the “anti-proliferative properties on MPNST (words)” value is “lower efficacy than the TAT-DEF-c-Fos peptide”.

Turning to `CC(=O)O[C@H]1C(=O)[C@@]2(C)[C@H]([C@H](OC(=O)c3ccccc3)[C@]3(O)C[C@H](OC(=O)[C@H](O)[C@@H](NC(=O)c4ccccc4)c4ccccc4)C(C)=C1C3(C)C)[C@]1(OC(C)=O)CO[C@@H]1C[C@@H]2O` [Paclitaxel], in the assay on vSMC, the “effect on vSMC invasiveness (wound healing)” value is given as “significant but transient effect”. For the same compound, the “inhibition of HCAEC cell proliferation” value in assay [2] is listed as “efficient”.

On to `CO[C@H]1C[C@@H]2CC[C@@H](C)[C@@](O)(O2)C(=O)C(=O)N2CCCC[C@H]2C(=O)O[C@H]([C@H](C)C[C@@H]2CC[C@@H](O)[C@H](OC)C2)CC(=O)[C@H](C)/C=C(\C)[C@@H](O)[C@@H](OC)C(=O)[C@H](C)C[C@H](C)/C=C/C=C/C=C/1C` [Rapamycin], for which the IC50 in assay [3] is about 10 mM.

In the case of `CC[C@H](C)[C@H](NC(=O)[C@H](Cc1c[nH]cn1)NC(=O)[C@@H](NC(=O)[C@H](CCC(N)=O)NC(=O)[C@H](C)NC(=O)[C@H](CO)NC(=O)CNC(=O)[C@H](CO)NC(=O)[C@H](CO)NC(=O)[C@@H]1CCCN1C(=O)[C@H](Cc1ccccc1)NC(=O)[C@H](CCC(N)=O)NC(=O)[C@H](Cc1ccccc1)NC(=O)[C@H](CO)NC(=O)[C@H](CC(C)C)NC(=O)[C@H](CCCCN)NC(=O)[C@H](C)NC(=O)[C@@H]1CCCN1C(=O)[C@H](CO)NC(=O)[C@@H]1CCCN1C(=O)[C@@H]1CCCN1C(=O)[C@H](CCCNC(=N)N)NC(=O)[C@H](CCCNC(=N)N)NC(=O)[C@H](CCCNC(=N)N)NC(=O)[C@H](CCC(N)=O)NC(=O)[C@H](CCCNC(=N)N)NC(=O)[C@H](CCCNC(=N)N)NC(=O)[C@H](CCCCN)NC(=O)[C@H](CCCCN)NC(=O)[C@H](CCCNC(=N)N)NC(=O)CN)C(C)C)C(=O)O` [TAT-DEF-Elk-1] (H-GRKKRRQRRRPPSPAKLSFQFPSSGSAQVHI-OH; N-terminus and C-terminus assumed), the “anti-proliferative properties on vSMC (serum-induced proliferation)” value in assay [4] is “not and no effect”. For the same compound, the results for the “anti-proliferative properties on MPNST (words)” value in assay [1] and in assay [1] (listed as TAT-DEF-Elk1) were “slight inhibitory effect” and “low anti-proliferative properties”, respectively. The “inhibition of proliferation of sNF96.2, maximum reached” value in assay [1] (even at higher doses (up to 100 μM)) was under 50%. Besides, the “inhibition of HCAEC cell proliferation” value in assay [2] is “no effect”. Further, the “inhibition of NIH3T3 fibroblast proliferation” value in the assay with NIH3T3 cells is given as “no effect”.

For the compound `N#CC(=C(/N)Sc1ccccc1N)/C(C#N)=C(\N)Sc1ccccc1N` [Peptide U0126, U0126], the “effect on vSMC invasiveness (wound healing)” value with vSMC is “lack of effect”; in the assay with vSMC (listed as classical MEK inhibitor) it was “failed to block invasiveness”. Also, the “inhibition of HCAEC cell proliferation” value in assay [2] is reported as “efficient”. For the same compound, the “inhibition of NIH3T3 fibroblast proliferation” value in the assay on NIH3T3 cells was “failed to inhibit proliferation”.

For “TAT-DEF-JunB: SEQ ID NO: 37 GRKKRRQRRRPPTTPTPPGQYFYPRGGGSGGGAG (pepsignal)”, the “anti-proliferative properties on MPNST (words)” value in assay [1] is recorded as “lower efficacy than the TAT-DEF-c-Fos peptide”.
